Test results taken from paper PMC8512562, “Semisynthetic Derivatives of Selected Amaryllidaceae Alkaloids as a New Class of Antimycobacterial Agents” (Molecules, 2021).
In brackets after ≈: the same amount, converted by molar mass. Read-outs that look alike come from different tables or passages of the source.

Key:
[1] = test system: Mycobacterium smegmatis DSM 43465 (ATCC 607); experiment: Antimycobacterial screening (microdilution broth, resazurin) against M. smegmatis; type: cell-based; conditions: Mycolicibacterium smegmatis, 48 h, read-out: MIC M. smegmatis
HepG2 cells = experiment: cells; type: cell-based, Human; conditions: for IC50: Homo sapiens, HepG2, MTT, 24 h incubation
[2] = test system: Mycobacterium aurum DSM 43999 (ATCC 23366); experiment: Antimycobacterial screening (microdilution broth, resazurin) against M. aurum; type: cell-based; conditions: Mycolicibacterium aurum, 72 h, read-out: MIC M. aurum
[3] = test system: M. tuberculosis H37Ra, M. aurum and M. smegmatis; experiment: Antimycobacterial screening, MICs stated over all studied strains; type: cell-based, Mycobacterium; conditions: read-out: MICs against all studied strains
[4] = test system: Mycobacterium tuberculosis H37Ra; experiment: Antimycobacterial screening (microdilution broth, resazurin) against M. tuberculosis H37Ra; type: cell-based; conditions: Mycobacterium tuberculosis
[5] = range over M. tuberculosis H37Ra, M. aurum, M. smegmatis
[6] = H37RA, read-out: MIC Mtb H37Ra (µM)
[7] = M. tuberculosis H37Ra, resazurin added after 120 h, read-out: MIC Mtb H37Ra

Compound	MIC [1]	SI (selectivity index) (HepG2 cells)	IC50 (HepG2 cells)	MIC [2]	MIC [3, 5]	MIC [4, 6]	MIC [4, 7]	MIC ([3]; range over the studied strains)
COc1ccc2c3c1O[C@H]1C[C@@H](OC(=O)c4cccc5ccccc45)C=C[C@@]31CCN(C)C2 [1q, 6-O-(1-naphthoyl)galanthamine]	7.81 µg/mL (≈ 17.7 µM)	3.21	42.1 ± 4.1 µM	7.81 µg/mL (≈ 17.7 µM)	6.25 to 7.81 µg/mL	13.1 µM	6.25 µg/mL	–
CCOc1cc(OCC)cc(C(=O)O[C@H]2C=C[C@@]34CCN(C)Cc5ccc(OC)c(c53)O[C@H]4C2)c1 [1p, 6-O-(3,5-diethoxybenzoyl)galanthamine]	15.6 µg/mL (≈ 32.6 µM)	2.64	20.1 ± 2.1 µM	7.81 µg/mL (≈ 16.3 µM)	3.91 to 15.6 µg/mL	7.6 µM	3.91 µg/mL	7.6 to 30.2 µM
COc1cc2c(cc1OC)[C@@]13C=C[C@@H](OC(=O)c4cc(C)cc(C)c4)C[C@@H]1N(CC3)C2 [5a, 3-O-(3,5-dimethylbenzoyl)maritidine]	15.6 µg/mL (≈ 37.2 µM)	2.17	18.7 ± 2.7 µM	15.6 µg/mL (≈ 37.2 µM)	3.91 to 15.6 µg/mL	8.6 µM	3.91 µg/mL	–
COC1CC2C(=CC1OC(=O)c1cccc3ccccc13)C1CN2Cc2cc3c(cc21)OCO3 (stereo not drawn) [3f, 2-O-(1-naphthoyl)-3-O-methylpancracine]	3.91 µg/mL (≈ 8.58 µM)	3.51	27.7 ± 4.7 µM	3.91 µg/mL (≈ 8.58 µM)	3.91 µg/mL	7.9 µM	3.91 µg/mL	–
COc1ccc2c3c1O[C@H]1C[C@@H](OC(=O)c4ccc(C(C)(C)C)cc4)C=C[C@@]31CCN(C)C2 [1h, 6-O-(4-tert-butylbenzoyl)galanthamine]	7.81 µg/mL (≈ 17.4 µM)	2.43	16.8 ± 4.2 µM	7.81 µg/mL (≈ 17.4 µM)	3.12 to 7.81 µg/mL	6.9 µM	3.12 µg/mL	–
CCCCc1ccc(C(=O)O[C@H]2C=C[C@@]34CCN(C)Cc5ccc(OC)c(c53)O[C@H]4C2)cc1 [1i, 6-O-(4-butylbenzoyl)galanthamine]	7.81 µg/mL (≈ 17.4 µM)	4.20	14.7 ± 1.6 µM	1.98 µg/mL (≈ 4.42 µM)	1.56 to 7.81 µg/mL	3.5 µM	1.56 µg/mL	–
COc1cc2c(cc1OC)[C@@]13C=C[C@@H](OC(=O)c4cccc5ccccc45)C[C@@H]1N(CC3)C2 [5b, 3-O-(1-naphthoyl)maritidine]	15.6 µg/mL (≈ 35.4 µM)	1.03	16.8 ± 7.1 µM	7.81 µg/mL (≈ 17.7 µM)	3.91 to 15.6 µg/mL	16.3 µM	7.81 µg/mL	–
O=C(O[C@@H]1C=C[C@]23CCN(Cc4cc5c(cc42)OCO5)[C@H]3C1)c1cccc2ccccc12 [4a, 3-O-(1-naphthoyl)vittatine]	7.81 µg/mL (≈ 18.4 µM)	2.79	23.7 ± 2.2 µM	3.91 µg/mL (≈ 9.19 µM)	3.91 to 7.81 µg/mL	8.5 µM	3.91 µg/mL	–
